SMILES strings stand for the structures.

The nature of this data set: gradient 5% acetonitrile 3 min, to 50% in 2 min, to 85% in 15 min, held 3 min, 100 µL/min. Conditions: column: Zorbax Extend-C18 2.1 x 50 mm; eluents: water / acetonitrile, 0.1% formic acid. In short, it runs like this:
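Retention times come from adduct peaks that were picked computationally and then checked by hand. The standards, pure and pooled in mixtures of ~100 molecules, were run on a Zorbax Extend-C18 column (2.1 × 50 mm, 1.8 μm) at 100 μL/min with water and acetonitrile, each with 0.1% formic acid. Detection was by quadrupole time-of-flight mass spectrometry in positive and negative ionization mode, with a dead volume of 40 μL and a dwell volume of 900 μL.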
Consider `Cn1cc(-c2ccncc2)cc1C(=O)NCc1ccc(F)cc1`, for which the RP-LC retention time was 640 s.
For `Cc1cccc(-c2noc(C3CCCN3C(=O)c3cccc(Cl)c3)n2)c1` (centres undefined) the value was 1140 s.
In turn, `Cc1ccc(-c2cn3cc(C(=O)NC(C)(C)C)ccc3n2)cc1` yielded an RP-LC retention time of 692 s.
Turning to `COc1ccc(-c2nc3cnccn3c2Nc2cc(OC)ccc2OC)cc1`, the RP-LC retention time came out at 831 s.
`O=C(c1ccco1)N1CCCC1c1nc(-c2cccc(C(F)(F)F)c2)no1` (centres undefined) gave an RP-LC retention time of 1020 s.
As to `c1ccc(-c2cc3ccccc3[nH]2)cc1`, the RP-LC retention time came out at 1090 s.
The same measure for `COc1cccc(-c2noc(Cn3ccnc3C)n2)c1`: 624 s; for `CCOC(=O)c1noc2ncnc(NCC3CCN(Cc4ccccc4F)CC3)c12`: 661 s.
As to `O=C(Nc1ccc(OCc2nnc(-c3ccccc3)o2)cc1)c1ccsc1`, the RP-LC retention time came out at 864 s.
Consider `Cc1nn(-c2ccccc2)c(C)c1S(=O)(=O)N1CCC(C(=O)N2c3ccccc3CC2C)CC1` (centres undefined), for which the RP-LC retention time was 1060 s.
`CCOc1ccc2nc(NC(=O)Cc3csc4nc(-c5ccc(OC)c(OC)c5)cn34)sc2c1` registered an RP-LC retention time of 784 s.
The same measure for `COc1ccc(-c2noc(CN3C(=O)COc4cc(C)ccc43)n2)cc1OC`: 954 s; for `COc1ccc(C2CC(=O)N(Cc3ccccc3)C(=O)C2)cc1OC`: 904 s.
As to `Cc1ccc(Cl)cc1N(C)C(=O)C1CCCN(c2ncnc3c2nc2n3CCCCC2)C1` (centres undefined), the RP-LC retention time came out at 918 s.
In the case of `c1ccc(CN2CCN(c3ncccc3-c3nc(-c4ccccc4)no3)CC2)cc1`, the RP-LC retention time was found to be 769 s.
Take `Cc1ccc(C)c(CNC(=O)C2CCN(CCc3cn(C)c4ncccc34)CC2)c1`: the RP-LC retention time turned out to be 639 s.
For `CC(=O)N1CCCc2cc(S(=O)(=O)N3CCC(C(=O)N4CCN(C)CC4)CC3)ccc21` the value was 624 s.
For `O=C(O)c1ccc(N2CCCC(CN3CCCC3)C2)c(NS(=O)(=O)c2ccccc2)c1` (centres undefined) the value was 643 s; for `Cc1cc(COC(=O)c2cc3ccccc3o2)no1`, 866 s.
`COc1cc(-c2oc3cc(O)cc(O)c3c(=O)c2OC[C@@H]2OC(O[C@@H]3O[C@@H](C)[C@H](O)[C@@H](O)[C@H]3O)[C@@H](O)[C@H](O)[C@@H]2O)ccc1O` (some centres undefined) came in with an RP-LC retention time of 638 s.
For `CCN(Cc1ccccc1)C(=O)c1cn2c(n1)COCC2`, the RP-LC retention time was found to be 640 s.
`CC(=O)Nc1ccc(S(=O)(=O)N2CCCCC2c2cccnc2)cc1` (centres undefined) gave an RP-LC retention time of 593 s.
The compound `CC(=O)Nc1ccc(CCc2nc3ccc(C(=O)NCc4cccc(Br)c4)cc3[nH]2)cc1` came in with an RP-LC retention time of 669 s.
Take `CSc1ccc(-c2nc3ccc(C)cn3c2Nc2ccc(Cl)cc2)cc1`: the RP-LC retention time was determined as 693 s.
On to `COc1ccc(NC(=O)Cn2c(C)cc(-c3nnc(C4CC4)o3)c2C)cc1Cl`, for which the RP-LC retention time was determined as 856 s.
On to `CN(C)c1ccc(N2CCC(C(=O)NCCc3c[nH]c4ccccc34)CC2)nn1`, for which the RP-LC retention time turned out to be 621 s.
`O=c1c(NCCc2ccccn2)nc2ccncc2n1Cc1ccccc1` showed an RP-LC retention time of 551 s.
For `Cc1ccc(C)c(C(=O)NCc2ccc(-n3ccnc3)cc2)c1` the value was 630 s; for `O=C(NCc1ccc(F)cc1)N1CCCC1c1nc(-c2ccc(F)cc2F)no1` (centres undefined), 897 s; for `O=C(Cn1cnc2nc(N3CCCC(C(=O)NC4CC4)C3)sc2c1=O)Nc1ccc2c(c1)OCO2` (centres undefined), 659 s.
The same measure for `O=C(Nc1ccc([N+](=O)[O-])cc1O)Nc1ccccc1Br`: 914 s; for `Cc1nc2sc(C)c(C)n2c(=O)c1NC(=O)COc1ccc(Cl)cc1Cl`: 827 s; for `Cc1cc(N2CCOCC2)n2nc(-c3ccc(C(C)(C)C)cc3)nc2n1`: 960 s.
Compound `COCCNC(=O)c1nc(-c2ccnc(N3CCCCCC3)c2)no1` registered an RP-LC retention time of 602 s.
On to `O=C(NC1CCCCCCC1)C1CCN(C(=O)c2cccn2-c2cccnc2)CC1`, for which the RP-LC retention time was determined as 797 s.
For the compound `CC(C)CC(=O)N1CCCn2nc(-c3ccncc3)cc2C1`, the RP-LC retention time stood at 543 s.
Regarding `Cc1ccc(-c2nc(NC(=O)CCCOc3ccc(Cl)cc3)sc2C)cc1`, the RP-LC retention time was determined as 1250 s.
`COc1cccc(C(=O)N2CCC3(CC2)NC(=O)c2ccc(F)cc2N3C)c1` displayed an RP-LC retention time of 752 s.
On to `COc1ccc(NC(=O)c2cccn2Cc2noc(C)n2)cc1Cl`, for which the RP-LC retention time was 859 s.
In turn, `COc1ccc(NC(=O)Cn2nc3nc(N4CCCC4)ccn3c2=O)cc1Cl` showed an RP-LC retention time of 676 s.
The same measure for `c1ccc(-c2nnc(-c3ccccc3)nn2)cc1`: 1220 s.
In turn, `Cc1cccc(Oc2nccn3c(=O)n(CC(=O)NCCCc4ccccc4)nc23)c1C` gave an RP-LC retention time of 944 s.
Take `O=C(c1cccc(-n2cnnn2)c1)N1CCN(Cc2nc(-c3ccc(F)cc3)cs2)CC1`: the RP-LC retention time was 666 s.
The same measure for `COc1ccc(N2CC(c3noc(-c4cccc(N(C)C)c4)n3)CC2=O)cc1` (centres undefined): 983 s; for `CCCn1c(CCNC(=O)c2ccc(OC)cc2)nc2cccnc21`: 662 s.
Turning to `Cc1nn(CC(=O)NCCCN2CCCC2=O)c(=O)c2cc(-c3ccccc3)nn12`, the RP-LC retention time is 684 s.
Take `O=C(Cn1nc(S(=O)(=O)c2ccccc2)ccc1=O)N1CCN(c2ccccc2F)CC1`: the RP-LC retention time stood at 870 s.
For `O=C(Nc1cccc(F)c1)C1CCN(S(=O)(=O)c2cc(C(=O)N3CCCCCC3)cs2)CC1` the value was 939 s; for `CCCCNC(=O)c1cc(NC(=O)CC)cc2nc(C)ccc12`, 595 s.
The same measure for `CC(=O)Oc1ccccc1C1=NN(C(C)=O)C(c2ccc(Cl)cc2)O1` (centres undefined): 1020 s; for `COCCCNc1c(-c2cccc(F)c2)nc2sc(C(=O)N(C)C)c(C)n12`: 776 s; for `CCCOc1ccc(Br)cc1-c1cc(-c2ccc(Cl)cc2)[nH]c1-c1ccncc1`: 1040 s.
For `CN(C)C(=O)C1CCN(S(=O)(=O)Cc2ccc(Cl)cc2)CC1` the value was 746 s.
As for `COc1ccc(Cl)cc1C(=O)NC1CCN(c2cc(-c3cccs3)[nH]n2)C1` (centres undefined), the RP-LC retention time amounted to 802 s.
Turning to `Oc1ccc2c3c1O[C@H]1c4[nH]c5ccccc5c4C[C@@]4(O)C(C2)N(CC2CC2)CCC314` (some centres undefined), the RP-LC retention time was found to be 692 s.
Regarding `O=C(NCc1nc(-c2ccc(-c3csc(C4CC4)n3)cc2)no1)c1ccco1`, the RP-LC retention time came out at 830 s.
Turning to `CCOC(=O)N1CCN(C(=O)c2cccc(-n3cnnn3)c2)CC1`, the RP-LC retention time is 619 s.
As to `Cc1ccc2[nH]cc(CCNC(=O)Nc3ccc(Cl)cc3)c2c1`, the RP-LC retention time amounted to 962 s.
`Cc1ccc(NC(=O)c2ccc3[nH]c4c(c3c2)CN(C(=O)C2CCC2)CC4)cc1`: the RP-LC retention time worked out at 864 s.
`Oc1c(C(Nc2ccccc2)c2ccccn2)ccc2cccnc12` (centres undefined) registered an RP-LC retention time of 763 s.
For `CC(C)c1nc(CNC(=O)c2ccccc2)no1` the value was 707 s; for `Cc1sc2ccn(C)c(=O)c2c1C(=O)N1CCN(c2ccc(F)cc2)CC1`, 746 s; for `COc1ccc(-c2nnc(N3CCC(C(=O)Nc4ccc(OC)c(OC)c4)CC3)o2)cc1`, 748 s.
As for `O=C(c1cccc2c1CCN2C(=O)C1CC1)N1CCOCC1`, the RP-LC retention time was found to be 645 s.
On to `COc1ccc(-c2nnc(-c3cccc(S(=O)(=O)N4CCCCCC4)c3)o2)cc1`, for which the RP-LC retention time worked out at 1130 s.
In turn, `COc1ccc(NC(=O)C2CCN(c3nnc4ccccn34)CC2)cc1Cl` returned an RP-LC retention time of 666 s.
Regarding `Cc1ccc(C)c(NC(=O)c2cn(-c3ncccc3-c3nc(C(C)C)no3)cn2)c1`, the RP-LC retention time stood at 1010 s.
The compound `COc1ccc(-c2cc(N3CCC(NC(=O)C4(c5ccccc5)CC4)CC3)n[nH]2)cc1` came in with an RP-LC retention time of 817 s.
With `Cc1sc(-c2noc(C3CC3)n2)cc1S(=O)(=O)N1CCC(C(=O)NCc2cccs2)CC1`, the RP-LC retention time is 983 s.
In the case of `Cc1sc(-c2nc(C(C)C)cs2)cc1S(=O)(=O)NC1CCCC1`, the RP-LC retention time turned out to be 1240 s.
For the compound `Cc1nc(CSc2ncnc3sc(C)c(C)c23)cs1`, the RP-LC retention time was 988 s.
`CCOC(=O)c1cc(NC(=O)Nc2cccc(OC)c2)c(C)nc1C`: the RP-LC retention time was determined as 701 s.
On to `Fc1ccccc1N1CCN(Cc2nc(-c3ccc(N4CCSCC4)nc3)no2)CC1`, for which the RP-LC retention time is 1030 s.
With `CCOC(=O)C(Cc1ccc(O)cc1)Nc1nc2ccccc2o1` (centres undefined), the RP-LC retention time worked out at 846 s.
As for `COCCNC(=O)C(C)n1c(=O)c(C(F)(F)F)nc2cc(C)c(C)cc21` (centres undefined), the RP-LC retention time was found to be 986 s.
The same measure for `CN1C(=O)c2cccnc2Sc2cc(C(=O)N3CCc4ccccc43)ccc21`: 789 s; for `Cc1ccn(CC(C)NC(=O)c2cn3ccccc3n2)n1` (centres undefined): 583 s; for `O=C(NC1CCCCC1)C1CCN(c2cnn(Cc3ccccc3)c(=O)c2)CC1`: 793 s.
As to `CCc1c(C2CCN(C(=O)c3cc(C)oc3C)CC2)noc1N`, the RP-LC retention time turned out to be 704 s.
